Measurements published in article PMC6222624, “Identification of Alkaloids from Corydalis yanhusuo W. T. Wang as Dopamine D1 Receptor Antagonists by Using CRE-Luciferase Reporter Gene Assay” (Molecules : A Journal of Synthetic Chemistry and Natural …, 2018).
Like-named read-outs stand apart in the source and are kept apart here.

Assays:
dopamine D1 receptor = target: T1, dopamine D1 receptor (Homo sapiens, UniProt P21728); assay: CRE-luciferase reporter gene assay in HEK-D1/CRE/Luc2P cells; assay type: cell-based; settings: for antagonist profile in luciferase reporter gene assay: concentration-response, Figure 4A / Figure S3; for antagonist profile in luciferase reporter gene assay / Emax: dopamine 2 nM; for Emax: read-out: % Maximal Inhibition Mean ± SD (N = 3), Luciferase; for inhibition at 12.5 µM: single screening concentration 12.5 μM, read-out: inhibition in single-concentration screening (activity threshold)
T1 construct: Dopamine D1 receptor gene cloned in pcDNA 3.1 was kindly provided by Dr. Olivier Civelli; expressed in transfected cells
Source text: The cDNA plasmids of dopamine D1 receptor and CRE/Luci were stably co-transfected into human embryonic kidney-293 cells (HEK293) cells (HEK-D1/CRE/Luc2P). Activation of D1 receptors leads to the elevation of cAMP and activates the cAMP response element (CRE) and therefore induces the expression of the reporter gene luciferase. We used the natural ligand dopamine as a positive control to select the cell colony and to optimize and characterize the HEK-D1/CRE/Luc2P cell system.
(§1) The pGL4.29 (CRE/luc2P//Hygro) luciferase reporter gene was stably co-transfected with dopamine D1 receptor plasmid or was stably transfected individually in HEK293 cells. Transfection was carried out with lipofectamine 2000 reagent using the protocol provided by Promega. Stable cells expressing CRE-Luciferase and D1 receptor were selected in the presence of 700 μg/mL G418 and 200 μg/mL hygromycin for 10–14 days. Stable cells expressing CRE-Luciferase were singly selected in the presence of 200 μg/mL hygromycin. The obtained stable cells were then cultured with 350 μg/mL G418 and 100 μg/mL hygromycin or only 100 μg/mL hygromycin to maintain the selective growth.
(§2) The examination of CRE-luciferase activity was performed by a modification of methods as described previously. HEK293 stable cells were seeded in 96-well plates at a density of 1.5 × 10^4 cells per well. After cells became adherent, they were […] in serum-starved DMEM for different hours to explore the most suitable starving time. Cells were then pretreated with compounds for 1 h prior to dopamine stimulation. Afterwards, the cells were lysed with luciferase lysis buffer and the luminescence of the firefly luciferase was measured with the FlexStation 3 (Molecular Devices, Sunnyvale, CA, USA).
(§3) All statistical calculations were performed using GraphPad Prism 5.0 (GraphPad, Avenida, CA, USA). Data from each dose-response curve were normalized to the maximal stimulation by dopamine. At least three independent experiments were performed.

human D1 receptors = target: T2, human D1 receptors (Homo sapiens, UniProt P21728); assay: Fluorescent Ca2+ mobilization assay (FLIPR) in HEK 293T cells expressing D1 receptors and Gα15; assay type: cell-based; settings: for antagonist profile in FLIPR assay: concentration-response, Figure 4B; for antagonist profile in FLIPR assay / % Maximal Inhibition Mean ± SD (N = 3), FLIPR: dopamine 500 nM
T2 construct: The cDNA plasmids of D1-like receptors were stably transfected into HEK 293T cells; expressed in transfected cells
Description: We used a fluorescent Ca^2+ mobilization assay to further evaluate the hit compounds obtained from the luciferase reporter gene assay screens. […] With the coexpression of Gα15 protein, D1 receptors can be redirected to mediate intracellular calcium mobilization upon stimulation. Calcium levels were monitored using fluorometric imaging plate reader (FLIPR). The assay can also distinguish potential antagonists from agonists.
Fluorescent Ca^2+ mobilization assay was performed using Flu-4 AM reagent as reported earlier.
as §3

HEK/CRE/Luc2P cells = assay: Specificity control: forskolin-stimulated CRE-luciferase response in HEK/CRE/Luc2P negative control cells; assay type: cell-based, human; settings: for decrease of forskolin-stimulated response (cAMP levels): forskolin 1 μM, high doses of compound, Figure S2
Description: HEK293 cells stably expressing cDNA plasmid of CRE/Luciferase (HEK/CRE/Luc2P) were established as the negative control cells to test the specificity to the D1 receptor for the compounds.
as §1, §2

[1] = inhibition of dopamine (2 nM) response, HEK-D1/CRE/Luc2P cells, IC50 based on the degree of maximal inhibition, read-out: IC50 (μM) with 95% Confidence Intervals, Luciferase
[2] = inhibition of dopamine (500 nM) Ca2+ mobilization, HEK-D1/Gα15 cells, IC50 based on the degree of maximal inhibition, read-out: IC50 (μM) with 95% Confidence Intervals, FLIPR

T2 sequence (P21728 whole entry): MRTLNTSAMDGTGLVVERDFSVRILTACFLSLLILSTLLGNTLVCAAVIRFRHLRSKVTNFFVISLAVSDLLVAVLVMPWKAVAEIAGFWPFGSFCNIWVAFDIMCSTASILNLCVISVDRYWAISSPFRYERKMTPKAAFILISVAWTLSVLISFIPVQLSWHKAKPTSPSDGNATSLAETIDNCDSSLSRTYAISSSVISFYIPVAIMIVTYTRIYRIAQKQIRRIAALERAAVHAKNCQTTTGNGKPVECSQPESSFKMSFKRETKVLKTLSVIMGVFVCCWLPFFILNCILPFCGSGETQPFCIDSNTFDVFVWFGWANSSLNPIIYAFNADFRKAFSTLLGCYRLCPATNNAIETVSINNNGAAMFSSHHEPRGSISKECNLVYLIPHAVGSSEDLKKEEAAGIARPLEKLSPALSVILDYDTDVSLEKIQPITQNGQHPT
T1 sequence (P21728 whole entry): as above

Row | SMILES | antagonist profile in luciferase reporter gene assay (dopamine D1 receptor) | Emax (dopamine D1 receptor; HEK-D1/CRE/Luc2P cells) | IC50 (dopamine D1 receptor; [1]) | inhibition at 12.5 µM (dopamine D1 receptor) | % Maximal Inhibition Mean ± SD (N = 3), FLIPR (human D1 receptors; HEK-D1/Gα15 cells) | IC50 (human D1 receptors; [2]) | antagonist profile in FLIPR assay (human D1 receptors) | decrease of forskolin-stimulated response (cAMP levels) (HEK/CRE/Luc2P cells) | IC50 (dopamine D1 receptor) | IC50 (human D1 receptors) | EC50 (HEK/CRE/Luc2P cells; Homo sapiens, Figure S1, read-out: EC50 for increasing intracellular cAMP (CRE-luciferase))
1 | COc1cc2c(cc1OC)[C@@H]1Cc3ccc(OC)c(OC)c3CN1CC2 [Compound 2, Tetrahydropalmatine] | partial antagonist effects | 72.5 ± 4% | 0.644 µM | ≥ 50% | 92.64 ± 1.7945% | 2.24 µM | concentration-dependent antagonist responses |  |  |  | 
2 | COc1cc2c(cc1OC)-c1cc3ccc(OC)c(OC)c3c[n+]1CC2 [Compound 8, Palmatine] |  | 93.86 ± 0.437% |  | ≥ 50% |  |  | weak inhibitory effects | 25% | 7.08 µM |  | 
3 | COc1cc2c(cc1O)-c1cc3ccc(OC)c(OC)c3c[n+]1CC2 [Compound 9, Columbamine] |  | 97.5 ± 0.218% |  | ≥ 50% | 86.43 ± 0.7188% |  | concentration-dependent antagonist responses |  | 1.21 µM | 3.4 µM | 
4 | COc1cc2c(cc1O)C1Cc3ccc(OC)c(OC)c3C[N+]1(C)CC2 (stereo not shown) [Compound 10, N-methyltetrahydrocolumbamine] | partial antagonist effects | 78.2 ± 1.78% | 13.4 µM | ≥ 50% |  |  | weak inhibitory effects |  |  |  | 
5 | C=C[C@@]1(C)CC(=O)[C@]2(O)[C@@]3(C)[C@@H](O)CCC(C)(C)[C@@H]3[C@H](O)[C@H](OC(C)=O)[C@@]2(C)O1 [Forskolin, reference compound] |  |  |  |  |  |  |  |  |  |  | 1.2 µM

Second part, led by results:

Row | antagonist profile in luciferase reporter gene assay (dopamine D1 receptor) | Emax (dopamine D1 receptor; HEK-D1/CRE/Luc2P cells) | IC50 (dopamine D1 receptor; [1]) | inhibition at 12.5 µM (dopamine D1 receptor) | % Maximal Inhibition Mean ± SD (N = 3), FLIPR (human D1 receptors; HEK-D1/Gα15 cells) | IC50 (human D1 receptors; [2]) | SMILES | antagonist profile in FLIPR assay (human D1 receptors) | decrease of forskolin-stimulated response (cAMP levels) (HEK/CRE/Luc2P cells) | IC50 (dopamine D1 receptor) | IC50 (human D1 receptors) | EC50 (HEK/CRE/Luc2P cells; Homo sapiens, Figure S1, read-out: EC50 for increasing intracellular cAMP (CRE-luciferase))
6 |  | 83.5 ± 1.45% | 2.46 µM | ≥ 50% | 90.32 ± 1.9817% | 3.36 µM | COc1cc2c(cc1OC)[C@H]1[C@@H](C)c3ccc(OC)c(OC)c3CN1CC2 [Compound 4, Corydaline] | concentration-dependent antagonist responses |  |  |  | 
7 |  | 86 ± 1.76% | 10.3 µM | ≥ 50% | 77.04 ± 6.6410% | 3.08 µM | COc1cc2c(cc1OC)-c1c(C)c3ccc(O)c(OC)c3c[n+]1CC2 [Compound 5, 13-methyldehydrocorydalmine] | concentration-dependent antagonist responses | 25% |  |  | 
8 |  | 97.52 ± 0.626% | 0.621 µM | ≥ 50% | 94.38 ± 0.1939% | 0.612 µM | COc1cc2c(cc1O)CC[n+]1cc3c(OC)c(OC)ccc3c(C)c1-2 [Compound 6, Dehydrocorybulbine] | concentration-dependent antagonist responses |  |  |  | 
9 |  | 98.23 ± 0.33% | 1.29 µM | ≥ 50% | 90.61 ± 0.6541% | 1.53 µM | COc1cc2c(cc1OC)-c1c(C)c3ccc(OC)c(OC)c3c[n+]1CC2 [Compound 7, Dehydrocorydaline] | concentration-dependent antagonist responses |  |  |  | 
